Laboratory results from patent publication US20140294905A1, “ANTIMICROBIAL TEXTILES” (BACTOGEN BIYOTEKNOLOJIK URUNLER SANAYI VE TICARET ANONIM …, priority 2011, published 2014).

Columns and labels:
Botrytis cinerea [1] = assay: Modified disc diffusion method; settings: 25±1° C. for 72 hours
Method: (§3) A 100 μl solution containing 10^8 cfu/ml bacteria, 10^6 cfu/ml yeast and 10^4 spores/ml mould is prepared from new cultures and is inoculated respectively onto triptonic soy agar (TSA), Sabouraud Dextrose Agar (SDA) and Potato Dextrose Agar (PDA) through the use of diffusion method. 20 μl of sterile water is dropped onto empty discs and the discs are then dipped into sodium borate in powder format. Discs dipped into sodium borate are then placed on planted petri dishes. As a negative control, blank discs onto which 20 μl of sterile water is dropped are used. As a positive control, Ofloxacin (10 μg/disc) and nystatin (30 μg/disc) are respectively used for bacteria and fungi.
(§4) Planted petri dishes on which modified disc diffusion method is applied are kept at 36±1° C. for 24 hours for bacteria, at 36±1° C. for 48 hours for yeasts and at 25±1° C. for 72 hours for moulds. Antimicrobial activity inhibition zone (a zone where no microorganisms grow) is measured and evaluated for microorganisms tested with modified disc diffusion method. All tests are repeated at least twice.

Penicillium vinaceum [2] = assay: Modified disc diffusion method; settings: 25±1° C. for 72 hours
Method: as §3, §4

Candida glabrata [3] = assay: Modified disc diffusion method; settings: 36±1° C. for 48 hours
Method: as §3, §4

Fusarium oxysporum [4] = assay: Modified disc diffusion method; settings: 25±1° C. for 72 hours
Method: as §3, §4

Candida albicans [5] = assay: Modified disc diffusion method; settings: 36±1° C. for 48 hours
Method: as §3, §4

Penicillium expansum [6] = assay: Modified disc diffusion method; settings: 25±1° C. for 72 hours
Method: as §3, §4

Botrytis cinerea [7] = assay: Antimicrobial tests of textiles on planted petri dishes; format: cell-based; design: key: + indicates that (antimicrobial) inhibition zones are observed around the textiles added with sodium borate (FIG. 1-8); settings: in vitro, room temperature for 72 hours
Method: (§1) Sodium borate-added textiles prepared with three different techniques and the unprocessed textiles to which sodium borate is not added are placed on the petri dishes planted with microorganisms and their antimicrobial efficiency is tested.
(§2) Sodium borate-added textiles fixed with methanol, textiles sprayed with sodium borate dissolved in pH-enhanced water and textiles dyed with water-based textile dye the base of which is prepared by the addition of sodium borate are tested. As a negative control, any possible impact which inhibits the growing of microorganisms on textiles which are not processed is observed. […] Tested antimicrobial activity is evaluated upon the measuring of the inhibition zone of the microorganisms handled. All tests are repeated at least twice.

Aspergillus niger [8] = assay: as above; format: cell-based; design: key: + indicates that (antimicrobial) inhibition zones are observed around the textiles added with sodium borate (FIG. 1-8); settings: in vitro, room temperature for 72 hours
Method: as §1, §2

Penicillium expansum [9] = assay: as above; format: cell-based; design: key: + indicates that (antimicrobial) inhibition zones are observed around the textiles added with sodium borate (FIG. 1-8); settings: in vitro, room temperature for 72 hours
Method: as §1, §2

Candida albicans [10] = assay: as above; format: cell-based; design: key: + indicates that (antimicrobial) inhibition zones are observed around the textiles added with sodium borate (FIG. 1-8); settings: in vitro, 37° C. for 48 hours
Method: as §1, §2

Candida glabrata [11] = assay: as above; format: cell-based; design: key: + indicates that (antimicrobial) inhibition zones are observed around the textiles added with sodium borate (FIG. 1-8); settings: in vitro, 37° C. for 48 hours
Method: as §1, §2

Fusarium oxysporum [12] = assay: as above; format: cell-based; design: key: + indicates that (antimicrobial) inhibition zones are observed around the textiles added with sodium borate (FIG. 1-8); settings: in vitro, room temperature for 72 hours
Method: as §1, §2

Penicillium vinaceum [13] = assay: as above; format: cell-based; design: key: + indicates that (antimicrobial) inhibition zones are observed around the textiles added with sodium borate (FIG. 1-8); settings: in vitro, room temperature for 72 hours
Method: as §1, §2

Aspergillus niger [14] = assay: Modified disc diffusion method; settings: 25±1° C. for 72 hours
Method: as §3, §4

Pseudomonas aeruginosa [15] = assay: Modified disc diffusion method; settings: 36±1° C. for 24 hours
Method: as §3, §4

Staphylococcus aureus [16] = assay: Modified disc diffusion method; settings: 36±1° C. for 24 hours
Method: as §3, §4

Escherichia coli [17] = assay: Modified disc diffusion method; settings: 36±1° C. for 24 hours
Method: as §3, §4

Staphylococcus aureus [18] = assay: Antimicrobial tests of textiles on planted petri dishes; format: cell-based; design: key: + indicates that (antimicrobial) inhibition zones are observed around the textiles added with sodium borate (FIG. 1-8); settings: in vitro, 37° C. for 24 hours
Method: as §1, §2

Escherichia coli [19] = assay: as above; format: cell-based; design: key: + indicates that (antimicrobial) inhibition zones are observed around the textiles added with sodium borate (FIG. 1-8); settings: in vitro, 37° C. for 24 hours
Method: as §1, §2

Pseudomonas aeruginosa [20] = assay: as above; format: cell-based; design: key: + indicates that (antimicrobial) inhibition zones are observed around the textiles added with sodium borate (FIG. 1-8); settings: in vitro, 37° C. for 24 hours
Method: as §1, §2

MRSA = assay: as above; format: cell-based; design: key: + indicates that (antimicrobial) inhibition zones are observed around the textiles added with sodium borate (FIG. 1-8); settings: in vitro, 37° C. for 24 hours
Method: as §1, §2

C[C@@H]1[C@H](O)[C@@H](C)/C=C/C=C/CC/C=C/C=C/C=C/C=C/C(O[C@H]2O[C@H](C)[C@@H](O)[C@H](N)[C@@H]2O)CC2O[C@](O)(CC(O)C(O)CCC(O)CC(O)CC(O)CC(=O)O[C@H]1C)CC(O)C2C(=O)O (stereo partly shown) [Nystatin]
+: Antimicrobial effect (inhibition zone) (Botrytis cinerea [1]) | Antimicrobial effect (inhibition zone) (Penicillium vinaceum [2]) | Antimicrobial effect (inhibition zone) (Candida glabrata [3]) | Antimicrobial effect (inhibition zone) (Fusarium oxysporum [4]) | Antimicrobial effect (inhibition zone) (Candida albicans [5]) | Antimicrobial effect (inhibition zone) (Penicillium expansum [6]) | Antimicrobial test result (inhibition zone around textile) (Botrytis cinerea [7]) | Antimicrobial test result (inhibition zone around textile) (Aspergillus niger [8]) | Antimicrobial test result (inhibition zone around textile) (Penicillium expansum [9]) | Antimicrobial test result (inhibition zone around textile) (Candida albicans [10]) | Antimicrobial test result (inhibition zone around textile) (Candida glabrata [11]) | Antimicrobial test result (inhibition zone around textile) (Fusarium oxysporum [12]) | Antimicrobial test result (inhibition zone around textile) (Penicillium vinaceum [13]) | Antimicrobial effect (inhibition zone) (Aspergillus niger [14])

CC1COc2c(N3CCN(C)CC3)c(F)cc3c(=O)c(C(=O)O)cn1c23 (stereo not shown) [Ofloxacin]
+: Antimicrobial effect (inhibition zone) (Pseudomonas aeruginosa [15]) | Antimicrobial effect (inhibition zone) (Staphylococcus aureus [16]) | Antimicrobial effect (inhibition zone) (Escherichia coli [17]) | Antimicrobial test result (inhibition zone around textile) (Staphylococcus aureus [18]) | Antimicrobial test result (inhibition zone around textile) (Escherichia coli [19]) | Antimicrobial test result (inhibition zone around textile) (Pseudomonas aeruginosa [20]) | Antimicrobial test result (inhibition zone around textile) (MRSA)

O.O.O.O.O.O.O.O.O.O.[Na+].[Na+].[O-]B1OB2OB([O-])OB(O1)O2 [Sodium Borate, sodium borate]
+: Antimicrobial effect (inhibition zone) (Pseudomonas aeruginosa [15]) | Antimicrobial effect (inhibition zone) (Botrytis cinerea [1]) | Antimicrobial effect (inhibition zone) (Penicillium vinaceum [2]) | Antimicrobial effect (inhibition zone) (Candida glabrata [3]) | Antimicrobial effect (inhibition zone) (Staphylococcus aureus [16]) | Antimicrobial effect (inhibition zone) (Fusarium oxysporum [4]) | Antimicrobial effect (inhibition zone) (Candida albicans [5]) | Antimicrobial effect (inhibition zone) (Penicillium expansum [6]) | Antimicrobial effect (inhibition zone) (Escherichia coli [17]) | Antimicrobial effect (inhibition zone) (Aspergillus niger [14])
